Source: patent publication US12492188B2, “1H-benzo[D]imidazole derivatives as TLR9 inhibitors for the treatment of fibrosis” (BRISTOL-MYERS SQUIBB COMPANY, priority 2020, dated 2025)
Read-outs that look alike come from different tables or passages of the source.

How the values were obtained:
Assay type in all cases: cell-based
human TLR7 = target: T1, human TLR7 (Homo sapiens, UniProt Q9NYK1); assay: TLR7 inhibition reporter assay (HEK-Blue cells, secreted embryonic alkaline phosphatase reporter); conditions: HEK-Blue cells overexpressing human TLR7, stimulated with gardiquimod 7.5 μM; read-out: TLR 7 IC50
T1 construct: host or cells: HEK-Blue cells (HEK293-derived reporter line)
T1 sequence (Q9NYK1 27-1049): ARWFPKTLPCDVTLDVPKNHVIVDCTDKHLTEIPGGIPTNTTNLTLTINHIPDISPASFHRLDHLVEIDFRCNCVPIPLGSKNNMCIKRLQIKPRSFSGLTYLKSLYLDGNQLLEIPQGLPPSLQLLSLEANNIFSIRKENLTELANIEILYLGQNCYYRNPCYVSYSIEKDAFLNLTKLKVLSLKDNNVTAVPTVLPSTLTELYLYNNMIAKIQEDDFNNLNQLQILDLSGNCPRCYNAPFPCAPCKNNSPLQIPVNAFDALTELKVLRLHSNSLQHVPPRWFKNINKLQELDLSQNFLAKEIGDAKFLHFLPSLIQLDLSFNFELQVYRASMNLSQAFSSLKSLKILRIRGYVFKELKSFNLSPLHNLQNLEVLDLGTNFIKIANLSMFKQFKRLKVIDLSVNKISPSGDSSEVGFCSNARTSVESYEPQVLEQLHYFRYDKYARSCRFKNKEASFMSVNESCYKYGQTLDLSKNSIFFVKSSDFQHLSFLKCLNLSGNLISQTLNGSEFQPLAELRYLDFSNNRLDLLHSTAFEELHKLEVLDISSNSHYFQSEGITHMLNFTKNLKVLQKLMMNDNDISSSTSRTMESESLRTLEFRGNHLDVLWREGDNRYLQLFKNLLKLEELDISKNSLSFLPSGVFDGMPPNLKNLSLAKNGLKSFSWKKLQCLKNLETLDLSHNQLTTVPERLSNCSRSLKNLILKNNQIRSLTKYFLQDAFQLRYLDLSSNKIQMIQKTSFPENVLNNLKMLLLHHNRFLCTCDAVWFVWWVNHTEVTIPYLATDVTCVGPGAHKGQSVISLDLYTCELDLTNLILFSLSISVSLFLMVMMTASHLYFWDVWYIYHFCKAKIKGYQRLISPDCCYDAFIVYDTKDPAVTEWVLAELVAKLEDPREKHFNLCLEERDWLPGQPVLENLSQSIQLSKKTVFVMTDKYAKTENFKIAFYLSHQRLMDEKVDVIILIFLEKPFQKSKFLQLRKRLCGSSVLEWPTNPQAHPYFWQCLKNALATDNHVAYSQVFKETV
Outline: (§1)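 Steps: seed receptor-specific HEK-Blue cells; add compound, 0.05 nM–50 μM; wait 30 min at room temperature; add final gardiquimod 7.5 μM, R848 15.9 μM or ODN2006 5 nM for TLR7, TLR8 or TLR9; incubate 22 h at 37 °C; detect NF-κB/AP-1-driven SEAP.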

human TLR9 = target: T2, human TLR9 (Homo sapiens, UniProt Q9NR96); assay: TLR9 inhibition reporter assay (HEK-Blue cells, secreted embryonic alkaline phosphatase reporter); conditions: HEK-Blue cells overexpressing human TLR9, stimulated with ODN2006 5 nM
T2 construct: host or cells: HEK-Blue cells (HEK293-derived reporter line)
T2 sequence (Q9NR96 26-1032): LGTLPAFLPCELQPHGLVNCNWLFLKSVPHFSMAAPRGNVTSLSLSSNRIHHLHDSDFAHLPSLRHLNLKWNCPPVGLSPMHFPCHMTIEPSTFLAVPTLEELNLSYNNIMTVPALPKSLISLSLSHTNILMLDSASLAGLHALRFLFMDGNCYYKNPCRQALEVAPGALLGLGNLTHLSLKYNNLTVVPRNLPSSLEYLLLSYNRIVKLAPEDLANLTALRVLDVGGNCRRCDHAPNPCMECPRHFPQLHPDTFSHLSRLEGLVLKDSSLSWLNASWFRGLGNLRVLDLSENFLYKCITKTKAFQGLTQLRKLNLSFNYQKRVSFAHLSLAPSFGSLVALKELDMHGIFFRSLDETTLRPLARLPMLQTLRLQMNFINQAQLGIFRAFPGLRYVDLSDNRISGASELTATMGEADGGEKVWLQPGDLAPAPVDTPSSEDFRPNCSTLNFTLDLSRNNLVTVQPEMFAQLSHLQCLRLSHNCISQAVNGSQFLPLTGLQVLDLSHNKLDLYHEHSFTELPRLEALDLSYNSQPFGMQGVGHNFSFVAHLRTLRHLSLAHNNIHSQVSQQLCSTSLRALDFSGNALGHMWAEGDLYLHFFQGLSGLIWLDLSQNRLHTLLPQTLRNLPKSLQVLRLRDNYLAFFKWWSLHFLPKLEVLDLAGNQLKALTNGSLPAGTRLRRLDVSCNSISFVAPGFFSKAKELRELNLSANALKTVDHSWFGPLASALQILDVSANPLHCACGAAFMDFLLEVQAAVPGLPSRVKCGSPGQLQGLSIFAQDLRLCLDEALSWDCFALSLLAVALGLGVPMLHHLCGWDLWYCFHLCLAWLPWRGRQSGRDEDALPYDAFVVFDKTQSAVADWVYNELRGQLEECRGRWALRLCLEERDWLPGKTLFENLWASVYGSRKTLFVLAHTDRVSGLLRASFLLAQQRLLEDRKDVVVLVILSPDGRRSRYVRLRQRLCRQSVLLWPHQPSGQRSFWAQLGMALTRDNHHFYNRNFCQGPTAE
Outline: as §1

human TLR8 = target: T3, human TLR8 (Homo sapiens, UniProt Q9NR97); assay: TLR8 inhibition reporter assay (HEK-Blue cells, secreted embryonic alkaline phosphatase reporter); conditions: HEK-Blue cells overexpressing human TLR8, stimulated with R848 15.9 μM; read-out: TLR 8 IC50
T3 construct: host or cells: HEK-Blue cells (HEK293-derived reporter line)
T3 sequence (Q9NR97 27-1041): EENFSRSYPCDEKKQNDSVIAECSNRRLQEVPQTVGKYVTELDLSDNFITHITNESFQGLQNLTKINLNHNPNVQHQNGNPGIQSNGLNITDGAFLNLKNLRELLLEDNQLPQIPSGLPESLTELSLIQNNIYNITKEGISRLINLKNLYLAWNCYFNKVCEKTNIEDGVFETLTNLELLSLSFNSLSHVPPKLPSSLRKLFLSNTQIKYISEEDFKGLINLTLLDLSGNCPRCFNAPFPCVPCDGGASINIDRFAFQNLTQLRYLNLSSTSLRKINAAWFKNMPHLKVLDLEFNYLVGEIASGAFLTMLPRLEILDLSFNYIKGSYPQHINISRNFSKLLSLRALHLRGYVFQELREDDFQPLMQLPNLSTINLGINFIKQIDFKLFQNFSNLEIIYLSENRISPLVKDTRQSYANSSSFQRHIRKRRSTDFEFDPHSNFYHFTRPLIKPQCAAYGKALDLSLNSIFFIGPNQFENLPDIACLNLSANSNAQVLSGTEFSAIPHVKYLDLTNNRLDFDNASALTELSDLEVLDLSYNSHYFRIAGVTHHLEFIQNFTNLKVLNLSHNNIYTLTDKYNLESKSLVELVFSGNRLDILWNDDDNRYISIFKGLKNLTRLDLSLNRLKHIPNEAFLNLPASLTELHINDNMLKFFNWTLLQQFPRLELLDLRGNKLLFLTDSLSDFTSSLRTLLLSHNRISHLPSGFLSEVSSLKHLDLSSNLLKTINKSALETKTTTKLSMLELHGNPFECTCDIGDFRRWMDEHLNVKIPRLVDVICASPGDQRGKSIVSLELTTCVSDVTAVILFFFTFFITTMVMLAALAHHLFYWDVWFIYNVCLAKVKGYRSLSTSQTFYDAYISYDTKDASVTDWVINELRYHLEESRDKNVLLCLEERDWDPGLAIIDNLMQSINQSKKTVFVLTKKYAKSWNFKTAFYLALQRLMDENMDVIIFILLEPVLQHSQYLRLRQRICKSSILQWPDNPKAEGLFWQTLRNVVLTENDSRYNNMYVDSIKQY
Outline: as §1

[1] = 22 hour incubation, reporter readout

## CN(C)C1CCN(Cc2ccc(-c3ccc4nc(-c5ccc(S(C)(=O)=O)cc5F)n(C)c4c3)cc2)CC1 [Example 380, 1-(4-(2-(2-fluoro-4-(methylsulfonyl)phenyl)-1-methyl-1H-benzo[d]imidazol-6-yl)benzyl)-N,N-dimethylpiperidin-4-amine]
Human TLR7
  IC50: 1.3 µM
Human TLR9; [1]
  IC50: 0.174 µM
Human TLR9; read-out: TLR 9 IC50
  IC50: 0.174 µM
Human TLR8
  IC50: 0.3 µM

## CN(C)C1CCN(Cc2ccc(-c3ccc4nc(-c5ccc(C#N)cc5)n(C)c4c3)cc2)CC1 [Example 383, 4-(6-(4-((4-(dimethylamino)piperidin-1-yl)methyl)phenyl)-1-methyl-1H-benzo[d]imidazol-2-yl)benzonitrile]
Human TLR7
  IC50: 2.2 µM
Human TLR9; [1]
  IC50: 0.068 µM
Human TLR9; read-out: TLR 9 IC50
  IC50: 0.068 µM
Human TLR8
  IC50: 2.3 µM

## Cc1cc(-c2ccc(CN3CCC(N(C)C)CC3)cc2)cc2c1nc(-c1ccc(S(C)(=O)=O)cc1)n2C [Example 385, 1-(4-(1,4-dimethyl-2-(4-(methylsulfonyl)phenyl)-1H-benzo[d]imidazol-6-yl)benzyl)-N,N-dimethylpiperidin-4-amine]
Human TLR7
  IC50: 1.2 µM
Human TLR9; [1]
  IC50: 0.18 µM
Human TLR9; read-out: TLR 9 IC50
  IC50: 0.179 µM
Human TLR8
  IC50: 5.6 µM

## CCN(C)C1CCN(c2ccc(-c3cc(C)c4nc(-c5ccc(S(C)(=O)=O)cc5)n(C)c4c3)cc2)CC1 [Example 386, 1-(4-(1,4-dimethyl-2-(4-(methylsulfonyl)phenyl)-1H-benzo[d]imidazol-6-yl)phenyl)-N-ethyl-N-methylpiperidin-4-amine]
Human TLR7
  IC50: 1.7 µM
Human TLR9; [1]
  IC50: 0.27 µM
Human TLR9; read-out: TLR 9 IC50
  IC50: 0.267 µM
Human TLR8
  IC50: 4.4 µM

## Cc1cc(-c2ccc(CN3C[C@H]4CN(C)C[C@H]4C3)c(F)c2)cc2c1nc(-c1ccc(S(C)(=O)=O)cc1)n2C [Example 388, 6-(3-fluoro-4-((cis-5-methylhexahydropyrrolo[3,4-c]pyrrol-2(1H)-yl)methyl)phenyl)-1,4-dimethyl-2-(4-(methylsulfonyl)phenyl)-1H-benzo[d]imidazole]
Human TLR7
  IC50: 0.4 µM
Human TLR9; [1]
  IC50: 0.23 µM
Human TLR9; read-out: TLR 9 IC50
  IC50: 0.227 µM
Human TLR8
  IC50: 3.2 µM

## CCN1CCCN(Cc2ccc(-c3cc(C)c4nc(-c5ccc(S(C)(=O)=O)cc5)n(C)c4c3)cc2F)CC1 [Example 389, 6-(4-((4-ethyl-1,4-diazepan-1-yl)methyl)-3-fluorophenyl)-1,4-dimethyl-2-(4-(methylsulfonyl)phenyl)-1H-benzo[d]imidazole]
Human TLR7
  IC50: 0.3 µM
Human TLR9; [1]
  IC50: 0.33 µM
Human TLR9; read-out: TLR 9 IC50
  IC50: 0.327 µM
Human TLR8
  IC50: 1.8 µM

## Cc1cc(-c2ccc(CN3CCC(N(C)C)CC3)c(F)c2)cc2c1nc(-c1ccc(S(C)(=O)=O)cc1)n2C [Example 390, 1-(4-(1,4-dimethyl-2-(4-(methylsulfonyl)phenyl)-1H-benzo[d]imidazol-6-yl)-2-fluorobenzyl)-N,N-dimethylpiperidin-4-amine]
Human TLR7
  IC50: 4.2 µM
Human TLR9; [1]
  IC50: 0.091 µM
Human TLR9; read-out: TLR 9 IC50
  IC50: 0.091 µM
Human TLR8
  IC50: 10.2 µM

## Cc1cc(-c2cc(F)c(CN3CCC(N4CCCC4)CC3)c(F)c2)cc2c1nc(-c1ccc(S(C)(=O)=O)cc1)n2C [Example 391, 6-(3,5-difluoro-4-((4-(pyrrolidin-1-yl)piperidin-1-yl)methyl)phenyl)-1,4-dimethyl-2-(4-(methylsulfonyl)phenyl)-1H-benzo[d]imidazole]
Human TLR7
  IC50: 2.1 µM
Human TLR9; [1]
  IC50: 0.18 µM
Human TLR9; read-out: TLR 9 IC50
  IC50: 0.178 µM
Human TLR8
  IC50: 11.7 µM

## Cc1cc(-c2cc(F)c(CN3CCC(N(C)C)CC3)c(F)c2)cc2c1nc(-c1ccc(S(C)(=O)=O)cc1)n2C [Example 392, 1-(4-(1,4-dimethyl-2-(4-(methylsulfonyl)phenyl)-1H-benzo[d]imidazol-6-yl)-2,6-difluorobenzyl)-N,N-dimethylpiperidin-4-amine]
Human TLR7
  IC50: 10.2 µM
Human TLR9; [1]
  IC50: 0.47 µM
Human TLR9; read-out: TLR 9 IC50
  IC50: 0.466 µM
Human TLR8
  IC50: 6.4 µM

## Cc1cc(-c2ccc(CN3CCC(N(C)C4CC4)CC3)cc2)cc2c1nc(-c1ccc(S(C)(=O)=O)cc1)n2C [Example 393, N-cyclopropyl-1-(4-(1,4-dimethyl-2-(4-(methylsulfonyl)phenyl)-1H-benzo[d]imidazol-6-yl)benzyl)-N-methylpiperidin-4-amine]
Human TLR7
  IC50: > 50 µM
Human TLR9; [1]
  IC50: 0.33 µM
Human TLR9; read-out: TLR 9 IC50
  IC50: 0.334 µM
Human TLR8
  IC50: 9.5 µM

## Cc1cc(-c2ccc(CN3CCC(N(C)C4CC4)CC3)c(F)c2)cc2c1nc(-c1ccc(S(C)(=O)=O)cc1)n2C [Example 394, N-cyclopropyl-1-(4-(1,4-dimethyl-2-(4-(methylsulfonyl)phenyl)-1H-benzo[d]imidazol-6-yl)-2-fluorobenzyl)-N-methylpiperidin-4-amine]
Human TLR7
  IC50: > 50 µM
Human TLR9; [1]
  IC50: 0.56 µM
Human TLR9; read-out: TLR 9 IC50
  IC50: 0.563 µM
Human TLR8
  IC50: 5.7 µM
